Results published in patent publication US6689813B2 (Biostatin Gyogyszerkutato-Fejleszto kft., priority 1998, dated 2004).
Where no end group is shown, it is not given here. [ ]: non-standard residue; d: D form. βAsp(indolinyl) = β-Asp(indolinyl) N-terminal residue

Columns and labels:
Wistar rats [1] = assay: 1% mustard oil-induced neurogenic inflammation (Evans blue plasma extravasation, foot skin); type: in vivo, rat; settings: for Decrease % (Evans blue extravasation vs control) / Evans blue extravasation: 20 μg/kg i.p.; for Decrease % (Evans blue extravasation vs control): 1% mustard oil; for Evans blue extravasation: 1% mustard oil on feet, control 169.525; for inhibition of mustard oil-induced neurogenic inflammation (in words): 20 μg/kg, 20 minutes after i.p. administration
Description: Thirty minutes after acute bilateral denervation of the lower limbs (transsection of the saphenous and sciatic nerves), 50 mg/kg of Evans blue dye was administered to the tail vein of nembutal-anaesthetized (pentobarbital, 40 mg/kg i.p.) Wistar rats (150-220 g body weight; 5 to 7 animals in each group). […] The mustard oil induces a so-called neurogenic inflammation by the selective stimulation of the peripheral endings of CSPAN's and by releasing the mediators being present therein (chiefly tachykinins and CGRP); this neurogenic inflammation appears as a vasodilatation in the area of arterioles and in the form of a plasma extravasation at the venular side. Since the dye Evans blue is bound to serum albumin in the vascular bed, its precipitation and accumulation in the upper skin surface of foot are proportional to the extent of plasma extravasation. Thus, the quantitative determination of intensity of the inflammation becomes possible. After the painting with mustard oil, the animals were bled, the foot dorsum skins were cut out and their weights were determined. The amount of dye extracted during 72 hours of incubation in formamide was determined at 620 nm on a spectrophotometer (Spectromon 195). The amount (expressed as μg) of the extravasated Evans blue related to one g of wet tissue was calculated by means of the following formula:
Evans blue (μg/g)=E×V×k/m
E is the light absorption of the solution, V means the volume (ml) of the solution, m is the weight […] of the skin cut out from the foot dorsum skin; and k is a constant determined on the basis of a dilution series, which is characteristic of the dye solution.

Wistar rats [2] = assay: 0.5% dextran-induced non-neurogenic inflammation (foot swelling, plethysmometer) after chronic denervation; type: in vivo, rat
Description: This test is based on the fact that a non-neurogenic, so-called clearly chemical inflammation can be induced by chemical excitation (e.g. by dextran, carrageenin, formalin) on a chronically denervated body area at least 5 days following the transsection of the nerve. These chemical agents release inflammation-inducing substances (histamine, bradykinin, PAF, prostaglandins and leucotrienes) from immunocytes, chiefly from mast cells.
Dextran solution (0.1 ml, 0.5%) is administered into both feet, underneath the plantar skin of Wistar rats (5 to 7 animals in each group) anaesthetized by nembutal (40 mg/kg i.v.) 5 days after bilateral denervation (transsection of the saphenous and sciatic nerves) of the lower limbs. The pretreated animals received somatostatin (SS), ocreotide or TT-232 (10 μg/kg i.p.) 10 minutes earlier. Before the administration of dextran (0 minute value), then after 10, 20 and 30 minutes, respectively, the swelling of the feet was measured by using a plethysmometer (Ugo Basil). Dextran elicits the so-called clearly chemical inflammation in the feet deprived of nerve supply (innervation) through the transmitters released from the mast cells.
A dose/effect ratio was determined for each substance.

neurogenic inflammation = settings: sodium salicylate 250 mg/kg i.v.; amidopyridine 200 mg/kg p.o.; phenylbutazone 100 mg/kg i.v.; flufenamic acid 20 mg/kg i.v.; indomethacin 10 mg/kg p.o.; cited from earlier work
Wistar rats [3] = assay: Analgetic action: vegetative (pseudoaffective) reflex responses to mustard oil and capsaicin under urethane anaesthesia; type: in vivo, rat; parameters: Increase in heart rate: unit not given here; settings: 10 μg/kg i.p.
Excerpt: This test is based on the synchronous registration of several components of so-called pseudoaffective reflex responses, which can be induced on animals by pain-producing stimuli [Lim, R. K. S.: J. Comp. Neurol 118, 269-294 (1962)] under urethane anaesthesia.
A significant blood pressure increase of 45 mmHg as an average pressor response, heart rate increase of 85 (as an average) and hyperpnoea (the number of respirations increases by 61 per minute as an average) can be observed in control animals on the effect of strong chemonociceptive stimuli (painting of the lower limbs with 1% mustard oil or dropping a capsaicin solution of 100 μg/ml concentration into the eye) under urethane anaesthesia.
The blood pressure, heart rate and respiration of intact Wistar rats (5 to 7 animals in each group, with a body weight of 250 to 350 g) were continuously registered for 40 minutes through an arterial cannula as well as double ramifying trachea cannula. Ten minutes before beginning the measurement, the pretreated animals received intraperitoneally 10 μg/kg of somatostatin (SS), octreotide or TT-232, respectively. Both lower limbs of the animals were painted with mustard oil in the 3rd minute and capsaicin solution was dropped into their eyes in the 23rd minute. The vegetative responses given on these nociceptive stimuli were evaluated by using a specific computer program.

[4] = Table 2.a, 10 mg/kg, 10 minutes
[5] = Table 2.a, 10 mg/kg, 30 minutes

Molecule: D-Phe-Cys-Tyr-D-Trp-Lys-Cys-Trp-NH2 ([dF]CY[dW]KCW-NH2; cysteine pairing not given here) [VZ-924]
- Decrease % (Evans blue extravasation vs control) (Wistar rats [1]): 55.62%
- Evans blue extravasation (Wistar rats [1]): 75.26 µg/g
- inhibition of mustard oil-induced neurogenic inflammation (in words) (Wistar rats [1]): significantly inhibited

Molecule: O=C(NN=Cc1ccc(O)c(O)c1)C(=O)Nc1cccc([N+](=O)[O-])c1 [HDL 2722, 3′-nitrophenylamino-2-oxoacetyl-3″,4″-dihydroxyphenyl-hydra-zone]
- inhibition of 1% mustard oil-induced neurogenic inflammation (plasma extravasation) (Wistar rats [1]; 50 μg): 62%

Molecule: O=C(O)Cc1ccccc1Nc1c(Cl)cccc1Cl [Diclofenac, reference compound]
- foot swelling % (Wistar rats [2]; Table 2.a, 5 mg/kg, 20 minutes): 48.73 ± 4.84%
- foot swelling % (Wistar rats [2]; Table 2.a, 5 mg/kg, 30 minutes): 53.07 ± 3.95%
- foot swelling % (Wistar rats [2]; [4]): 24.35 ± 3.31%
- foot swelling % (Wistar rats [2]; [5]): 42.61 ± 3.55%
- foot swelling % (Wistar rats [2]; Table 2.a, 20 mg/kg, 10 minutes): 21.87 ± 2.84%
- foot swelling % (Wistar rats [2]; Table 2.a, 30 mg/kg, 10 minutes): 26.02 ± 1.79%
- foot swelling % (Wistar rats [2]; Table 2.a, 30 mg/kg, 30 minutes): 40.20 ± 1.73%

Molecule: COc1ccc2c(c1)c(CC(=O)O)c(C)n2C(=O)c1ccc(Cl)cc1 [indomethacin]
- significant inhibitory effect on neurogenic inflammation (neurogenic inflammation): none

Molecule: O=C([O-])c1ccccc1O.[Na+] [sodium salicylate]
- significant inhibitory effect on neurogenic inflammation (neurogenic inflammation): none

Molecule: Cc1c(N(C)C)c(=O)n(-c2ccccc2)n1C [amidopyridine]
- significant inhibitory effect on neurogenic inflammation (neurogenic inflammation): none

Molecule: O=C(O)c1ccccc1Nc1cccc(C(F)(F)F)c1 [flufenamic acid]
- significant inhibitory effect on neurogenic inflammation (neurogenic inflammation): none

Molecule: β-Asp(indolinyl)-Cys-Tyr-D-Trp-Lys-Cys-Thr-NH2 ({βAsp(indolinyl)}-CY[dW]KCT-NH2; cysteine pairing not given here) [VZ-927]
- Decrease % (Evans blue extravasation vs control) (Wistar rats [1]): 60.44%
- Evans blue extravasation (Wistar rats [1]): 67.07 µg/g
- inhibition of mustard oil-induced neurogenic inflammation (in words) (Wistar rats [1]): significantly inhibited

Molecule: C[C@@H](O)[C@@H]1NC(=O)[C@H](CCCCN)NC(=O)[C@@H](Cc2c[nH]c3ccccc23)NC(=O)[C@H](Cc2ccccc2)NC(=O)[C@@H](NC(=O)[C@H](N)Cc2ccccc2)CSSC[C@@H](C(=O)N[C@H](CO)[C@@H](C)O)NC1=O [Octreotide, reference compound]
- Decrease % (Evans blue extravasation vs control) (Wistar rats [1]): 3.952%
- Evans blue extravasation (Wistar rats [1]): 162.826 µg/g
- inhibition of mustard oil-induced neurogenic inflammation (in words) (Wistar rats [1]): inactive
- prevention of dextran-induced non-neurogenic inflammation (in words) (Wistar rats [2]; 10 μg/kg, even 40 minutes following the pretreatment): completely inactive
- foot swelling % (Wistar rats [2]; Table 2, 10 μg/kg i.p. 10 min before dextran, 10 minutes, control 32.97): 31.36%
- foot swelling % (Wistar rats [2]; Table 2, 10 μg/kg i.p. 10 min before dextran, 20 minutes, control 49.695): 47.7%
- foot swelling % (Wistar rats [2]; Table 2, 10 μg/kg i.p. 10 min before dextran, 30 minutes, control 56.68): 54.8%
- protection against pseudoaffective reflex triad elicited by mustard oil and capsaicin (in words) (Wistar rats [3]; 10 minutes before mustard oil): completely inactive
- Increase in respiration rate (Wistar rats [3]; after dropping capsaicin solution into the eye, control 47.5): 42 per minute
- Increase in mean arterial pressure (Wistar rats [3]; after dropping capsaicin solution into the eye, control 55): 47.13 mmHg
- Increase in heart rate (Wistar rats [3]; after dropping capsaicin solution into the eye, control 143): 127
- Increase in mean arterial pressure (Wistar rats [3]; after painting the feet by mustard oil, control 45.4): 43.2 mmHg
- Increase in respiration rate (Wistar rats [3]; after painting the feet by mustard oil, control 60.75): 45 per minute
- Increase in heart rate (Wistar rats [3]; after painting the feet by mustard oil, control 84.8): 81.2

Molecule: Cc1cnc(NC(=O)C2=C(O)c3ccccc3S(=O)(=O)N2C)s1 [Meloxicam, reference compound]
- foot swelling % (Wistar rats [2]; Table 2.a, 0.2 mg/kg, 10 minutes): 27.60 ± 3.56%
- foot swelling % (Wistar rats [2]; Table 2.a, 0.2 mg/kg, 20 minutes): 39.99 ± 3.65%
- foot swelling % (Wistar rats [2]; Table 2.a, 0.2 mg/kg, 30 minutes): 45.81 ± 2.9%
- foot swelling % (Wistar rats [2]; Table 2.a, 0.5 mg/kg, 10 minutes): 27.24 ± 3.56%
- foot swelling % (Wistar rats [2]; Table 2.a, 0.5 mg/kg, 20 minutes): 38.86 ± 2.86%
- foot swelling % (Wistar rats [2]; Table 2.a, 0.5 mg/kg, 30 minutes): 44.92 ± 2.99%
- foot swelling % (Wistar rats [2]; Table 2.a, 1 mg/kg, 10 minutes): 24.34 ± 2.57%
- foot swelling % (Wistar rats [2]; Table 2.a, 1 mg/kg, 20 minutes): 36.46 ± 3.44%
- foot swelling % (Wistar rats [2]; Table 2.a, 1 mg/kg, 30 minutes): 46.63 ± 3.2%
- foot swelling % (Wistar rats [2]; [4]): 20.39 ± 2.26%
- foot swelling % (Wistar rats [2]; Table 2.a, 10 mg/kg, 20 minutes): 33.36 ± 1.85%
- foot swelling % (Wistar rats [2]; [5]): 39.34 ± 3.75%

Molecule: D-Phe-Cys-Tyr-Gly-Lys-Cys-Thr-NH2 ([dF]CYGKCT-NH2; cysteine pairing not given here) [VZ-1021]
- Decrease % (Evans blue extravasation vs control) (Wistar rats [1]): 54.72%
- Evans blue extravasation (Wistar rats [1]): 76.72 µg/g
- inhibition of mustard oil-induced neurogenic inflammation (in words) (Wistar rats [1]): significantly inhibited

Molecule: D-Phe-Cys-Tyr-D-Trp-Gly-Cys-Thr-NH2 ([dF]CY[dW]GCT-NH2; cysteine pairing not given here) [VZ-934]
- Decrease % (Evans blue extravasation vs control) (Wistar rats [1]): 44.7%
- Evans blue extravasation (Wistar rats [1]): 93.7 µg/g
- inhibition of mustard oil-induced neurogenic inflammation (in words) (Wistar rats [1]): significantly inhibited
